Measurements from ChEMBL document CHEMBL4808169, “Discovery of Potent and Fast-Acting Antimalarial Bis-1,2,4-triazines” (J Med Chem, 2021).

Columns and labels:
[1] = Toxicity in Swiss mouse assessed as loss of mobility at 32 mg/kg/day administered for 4 days; format: organism-based; conditions: in vivo, 96 h, time 4 day
[2] = Drug metabolism in Sprague-Dawley rat urine assessed as oxygenated metabolite N-methyl-2-(3'-propoxy-5,5'-bi(1,2,4-triazin)-3-yloxy)ethanamine oxide formation at 10 mg/kg, po by high-resolution mass spectrometry; format: ADME, organism-based; conditions: in vivo
[3] = Drug metabolism in Sprague-Dawley rat urine assessed as oxygenated metabolite M+16(1) formation at 10 mg/kg, po by high-resolution mass spectrometry; format: ADME, organism-based; conditions: in vivo
[4] = system: Plasmodium falciparum; assay: Antimalarial activity against Plasmodium falciparum 3D7 infected in human red blood cells at 40 uM after 72 hrs by DAPI-staining based assay relative to control; format: functional
[5] = Drug metabolism in mouse hepatocytes assessed as oxygenated metabolite M+16(2) formation by LC-MS/MS(CID) analysis; format: ADME, cell-based, Hepatocyte
[6] = Toxicity in Swiss mouse assessed as induction of poor posture at 32 mg/kg/day administered for 4 days; format: organism-based; conditions: in vivo, 96 h, time 4 day
[7] = Drug metabolism in rat hepatocytes assessed as N-methyl-2-(3'-propoxy-5,5'-bi(1,2,4-triazin)-3-yloxy)ethanamine formation by LC-MS/MS(CID) analysis; format: ADME, cell-based, Hepatocyte
[8] = Drug metabolism in Sprague-Dawley rat feces assessed as M-32 metabolite formation at 3 mg/kg, iv by high-resolution mass spectrometry; format: ADME, organism-based; conditions: in vivo
[9] = target: Cytochrome P450 2C9 (Homo sapiens, UniProt P11712); assay: Inhibition of CYP2C9 in human liver microsomes assessed as reduction in […] activity by . high-pressure liquid chromatography-tandem mass spectrometry; format: ADME
Cytochrome P450 2C9, sequence (P11712 whole entry): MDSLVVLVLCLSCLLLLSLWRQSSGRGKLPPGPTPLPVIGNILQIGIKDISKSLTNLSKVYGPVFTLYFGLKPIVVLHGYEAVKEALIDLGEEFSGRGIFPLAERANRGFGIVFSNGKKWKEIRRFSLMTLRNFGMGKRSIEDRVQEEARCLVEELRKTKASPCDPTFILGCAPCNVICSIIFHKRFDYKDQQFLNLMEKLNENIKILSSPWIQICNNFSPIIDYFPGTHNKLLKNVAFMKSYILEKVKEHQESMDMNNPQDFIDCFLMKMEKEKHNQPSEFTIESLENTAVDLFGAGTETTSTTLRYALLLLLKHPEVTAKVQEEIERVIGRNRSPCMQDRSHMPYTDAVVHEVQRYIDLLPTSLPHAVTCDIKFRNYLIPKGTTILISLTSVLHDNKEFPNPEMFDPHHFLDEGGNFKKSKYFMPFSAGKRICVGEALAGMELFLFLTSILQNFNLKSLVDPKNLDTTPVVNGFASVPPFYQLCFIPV

[10] = Intrinsic clearance in rat hepatocytes assessed per million cells by UPLC-MS analysis; format: ADME, cell-based, Hepatocyte; conditions: read-out: CLH
[11] = Cmax in Sprague-Dawley rat plasma at 10 mg/kg, po administered via gavage measured at 0.25 to 2.5 hrs by LC-MS analysis; format: ADME, organism-based; set-up: route oral, time upper 2.5 hrs, dose 10 mg/kg, time lower 0.25 hrs
[12] = Drug metabolism in mouse liver microsomes assessed as oxygenated metabolite M+16(1) formation by LC-MS/MS(CID) analysis; format: ADME, Microsome
[13] = Drug metabolism in rat liver microsomes assessed as formation of cleavage product M-69 in presence of NADPH by LC-MS/MS(CID) analysis; format: ADME, Microsome
[14] = Drug metabolism in human liver microsomes assessed as oxygenated metabolite M+16(2) formation by LC-MS/MS(CID) analysis; format: ADME, Microsome
[15] = target: T1, Cytochrome P450 1A2 (Homo sapiens, UniProt P05177); assay: Inhibition of CYP1A2 in human liver microsomes assessed as reduction in […] activity by . high-pressure liquid chromatography-tandem mass spectrometry; format: ADME
T1 sequence (P05177 whole entry): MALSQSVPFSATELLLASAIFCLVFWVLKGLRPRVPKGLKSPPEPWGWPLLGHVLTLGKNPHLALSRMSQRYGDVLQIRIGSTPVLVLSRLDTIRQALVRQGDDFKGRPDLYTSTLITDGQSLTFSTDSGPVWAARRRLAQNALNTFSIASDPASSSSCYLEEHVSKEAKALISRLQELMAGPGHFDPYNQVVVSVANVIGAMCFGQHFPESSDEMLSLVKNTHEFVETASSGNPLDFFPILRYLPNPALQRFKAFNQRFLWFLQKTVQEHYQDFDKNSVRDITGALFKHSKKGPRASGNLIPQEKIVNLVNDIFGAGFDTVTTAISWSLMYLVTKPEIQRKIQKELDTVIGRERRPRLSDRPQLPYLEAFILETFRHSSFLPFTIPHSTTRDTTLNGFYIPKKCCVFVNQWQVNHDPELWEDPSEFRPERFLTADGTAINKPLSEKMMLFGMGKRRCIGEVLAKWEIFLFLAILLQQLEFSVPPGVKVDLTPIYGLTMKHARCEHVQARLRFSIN

[16] = system: HEK293; assay: Cytotoxicity against HEK293 cells incubated for 24 hrs by MTT assay; format: cell-based; conditions: Homo sapiens, HEK293, 24 h
[17] = Drug metabolism in human liver microsomes assessed as formation of cleavage product M-69 in presence of NADPH by LC-MS/MS(CID) analysis; format: ADME, Microsome
[18] = Tmax in Swiss mouse at 27 mg/kg, po measured up to 24 hrs by LC-MS analysis; format: ADME, organism-based; conditions: in vivo
[19] = Drug metabolism in Sprague-Dawley rat urine assessed as N-methyl-2-(3'-propoxy-5,5'-bi(1,2,4-triazin)-3-yloxy)ethanamine formation at 3 mg/kg, iv by high-resolution mass spectrometry; format: ADME, organism-based; conditions: in vivo
[20] = Drug metabolism in Sprague-Dawley rat feces assessed as oxygenated metabolite M+16(1) formation at 3 mg/kg, iv by high-resolution mass spectrometry; format: ADME, organism-based; conditions: in vivo
[21] = Drug metabolism in human hepatocytes assessed as glucuronides/sulfates metabolite formation by LC-MS/MS(CID) analysis; format: ADME, cell-based, Hepatocyte
[22] = Drug metabolism in human liver microsomes assessed as N-methyl-2-(3'-propoxy-5,5'-bi(1,2,4-triazin)-3-yloxy)ethanamine formation by LC-MS/MS(CID) analysis; format: ADME, Microsome
[23] = Drug metabolism in mouse hepatocytes assessed as glucuronides/sulfates metabolite formation by LC-MS/MS(CID) analysis; format: ADME, cell-based, Hepatocyte
[24] = Drug concentration in blood of NOD-SCID 1L2Rgamma mouse infected with Plasmodium falciparum 3D70087/N9 at 50 mg/kg, po measured at 24 hrs by LC-MS/MS analysis; format: ADME, organism-based; conditions: in vivo
[25] = Clearance in ABT-treated Sprague-Dawley rat blood at 3 mg/kg, iv by LC-MS analysis; format: ADME, organism-based
[26] = Drug metabolism in mouse liver microsomes assessed as N-methyl-2-(3'-propoxy-5,5'-bi(1,2,4-triazin)-3-yloxy)ethanamine formation by LC-MS/MS(CID) analysis; format: ADME, Microsome
[27] = Drug metabolism in mouse hepatocytes assessed as 3'-propoxy-5,5'-bi(1,2,4-triazin)-3-ol formation by LC-MS/MS(CID) analysis; format: ADME, cell-based, Hepatocyte
[28] = Drug metabolism in rat liver microsomes assessed as oxygenated metabolite M+16(2) formation by LC-MS/MS(CID) analysis; format: ADME, Microsome
[29] = Drug metabolism in Sprague-Dawley rat urine assessed as oxygenated metabolite N-methyl-2-(3'-propoxy-5,5'-bi(1,2,4-triazin)-3-yloxy)ethanamine oxide formation at 3 mg/kg, iv by high-resolution mass spectrometry; format: ADME, organism-based; conditions: in vivo
[30] = Apparent permeability across basolateral side to apical side in human Caco2 cells measured over 120 mins by LC-MS analysis; format: ADME, cell-based; conditions: Caco-2
[31] = Drug metabolism in Sprague-Dawley rat urine assessed as M-32 metabolite formation at 3 mg/kg, iv by high-resolution mass spectrometry; format: ADME, organism-based; conditions: in vivo
[32] = Cmax in Swiss mouse plasma at 2.8 mg/kg, po measured up to 24 hrs by LC-MS analysis; format: ADME, organism-based; set-up: route oral, dose 2.8 mg/kg, time <=24
[33] = Clearance in Swiss mouse plasma at 2.7 mg/kg, iv measured up to 24 hrs by LC-MS analysis; format: ADME, organism-based
[34] = target: Cytochrome P450 2D6 (Homo sapiens, UniProt P10635); assay: Inhibition of CYP2D6 in human liver microsomes assessed as reduction in […] activity by . high-pressure liquid chromatography-tandem mass spectrometry; format: ADME
Cytochrome P450 2D6, sequence (P10635 whole entry): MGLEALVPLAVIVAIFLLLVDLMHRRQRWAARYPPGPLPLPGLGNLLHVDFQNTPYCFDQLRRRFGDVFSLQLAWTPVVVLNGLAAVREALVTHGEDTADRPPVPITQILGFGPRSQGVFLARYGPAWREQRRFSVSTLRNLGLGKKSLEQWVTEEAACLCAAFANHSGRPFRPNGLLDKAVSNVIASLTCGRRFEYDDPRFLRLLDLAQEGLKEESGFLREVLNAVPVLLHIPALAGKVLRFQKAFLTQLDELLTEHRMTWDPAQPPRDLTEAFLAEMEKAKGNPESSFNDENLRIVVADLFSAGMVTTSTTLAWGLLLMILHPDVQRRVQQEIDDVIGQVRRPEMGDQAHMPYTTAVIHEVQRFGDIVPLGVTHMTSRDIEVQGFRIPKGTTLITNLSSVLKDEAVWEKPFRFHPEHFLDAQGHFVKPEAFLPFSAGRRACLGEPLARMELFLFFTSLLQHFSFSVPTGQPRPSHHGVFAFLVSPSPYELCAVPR

[35] = Oral bioavailability in Swiss mouse at 27 mg/kg measured up to 24 hrs; format: ADME, organism-based; conditions: in vivo

## CCCOc1nncc(-c2cnnc(OCCN(C)C)n2)n1
[1]
  Activity: Non-Toxic
[2]
  Drug metabolism: Metabolite_Detected
[3]
  Drug metabolism: Metabolite_Detected
[4]
  Activity: 100%
[5]
  Drug metabolism: Metabolite_Detected
[6]
  Activity: Non-Toxic
[7]
  Drug metabolism: Metabolite_Detected
[8]
  Drug metabolism: Metabolite_Detected
[9]
  IC50: > 20 µM
[10]
  hepatocyte CLint: 10 µL/min/1e6 cells
[11]
  Cmax: 89.4 nM
[12]
  Drug metabolism: Metabolite_Detected
[13]
  Drug metabolism: Metabolite_Detected
[14]
  Drug metabolism: Metabolite_Detected
[15]
  IC50: > 20 µM
[16]
  EC50: 36 µM
[17]
  Drug metabolism: Metabolite_Detected
[18]
  Tmax: 1 h
[19]
  Drug metabolism: Metabolite_Detected
[20]
  Drug metabolism: Metabolite_Detected
[21]
  Drug metabolism: Metabolite_Notdetected
[22]
  Drug metabolism: Metabolite_Notdetected
[23]
  Drug metabolism: Metabolite_Notdetected
[24]
  Drug uptake: < 1e-05 mg/mL
[25]
  clearance: 232 mL/min/kg
[26]
  Drug metabolism: Metabolite_Detected
[27]
  Drug metabolism: Metabolite_Detected
[28]
  Drug metabolism: Metabolite_Detected
[29]
  Drug metabolism: Metabolite_Detected
[30]
  Papp B→A at 2 h: 46 ×10⁻⁶ cm/s
[31]
  Drug metabolism: Metabolite_Detected
[32]
  Cmax: 16.8 nM
[33]
  clearance: 406 mL/min/kg
[34]
  IC50: > 20 µM
[35]
  bioavailability: 12%
